Tests used:
Type in all cases: physicochemical
[1] = Example 3: aqueous dissolution of powdered branched-chain amino acid blend (first material) with varying myo-inositol, LC/UV of filtrate; details: for Dissolved amino acid (g per 16 oz.): 7.00 g BCAA blend, water 21° C., 400 rpm
Description: (§1) Example 3 evaluates the effect that varying the myo-inositol concentration has on the aqueous dissolution of branched-chain amino acids. Two branched-chain amino acid materials were tested. The first material tested was 7.00 grams of a powdered branched-chain amino acid blend comprising 50 wt. % leucine, 25 wt. % isoleucine, and 25 wt. % valine. The second material tested was 3.5 grams of powdered leucine. Each material was tested with varying levels of powdered myo-inositol, expressed as a percentage of 17.6 grams (e.g., a serving of powdered nutritional product). For example, 1% myo-inositol is 0.176 grams, 2% myo-inositol is 0.352 grams, and so forth. The branched-chain amino acid material and the specified amount of myo-inositol were added to 16 fluid ounces of Milli-Q Plus water at 21° C. and stirred at 400 rpm. After 30 seconds and 60 seconds of stirring, an aliquot was obtained and filtered through a 0.45 μm PTFE membrane (Pall Life Sciences, Acrodisc CR 25, P/N 4501), and the filtrate of the first material was tested for valine, isoleucine, and leucine using the LC/UV method described below, while the filtrate of the second material was tested for leucine using the same LC/UV method. The test results for the first material tested are shown in Table 3, while the test results for the second material tested are shown in Table 4.
(§2) The LC/UV system used to perform the tests comprised the following: 1) Column: YMC ODS-AQ, 4.6 x 250 mm, 5 μm, Waters P/N AQ12S052546WT; 2) Mobile Phase: Milli-Q Plus water; 3) Flow Rate: 0.4 mL/minute; 4) Temperature: 40° C.; 5) Detection: UV at 192 nm; 6) Injection: 2 μL of filtrate; and 7) Run Time: 20 minutes.

[2] = Example 3: aqueous dissolution of powdered leucine only (second material) with varying myo-inositol, LC/UV of filtrate; details: for Dissolved Leucine (g per 16 oz.): 3.5 g leucine only, water 21° C., 400 rpm
Description: as §1, §2

[3] = Example 4: aqueous dissolution of branched-chain amino acids in a powdered nutritional product with varying myo-inositol, LC/UV of filtrate; details: 17.6 g powdered nutritional product, water 21° C., 400 rpm
Description: as §2
Example 4 evaluates the effect that myo-inositol concentration has on the aqueous dissolution of branched-chain amino acids (valine, isoleucine, and leucine) in a powdered nutritional product. One serving (17.6 grams) of the powdered nutritional product contains 7.00 grams of a branched-chain amino acid blend comprising 50 wt. % leucine, 25 wt. % isoleucine, and 25 wt. % valine. A serving of the powdered nutritional product with a specified amount of myo-inositol was added to 16 fluid ounces of Milli-Q Plus water at 21° C. and stirred at 400 rpm. At each specified time point, an aliquot was obtained and filtered through a 0.45 μm PTFE membrane (Pall Life Sciences, Acrodisc CR 25, P/N 4501), and the filtrate was tested for valine, isoleucine, and leucine using the LC/UV method as described in Example 3.

[4] = Example 5: effect of inositol isomers on dissolution of L-leucine, LC/UV of filtrate; details: 3.50 g L-leucine without inositol isomer (None, n = 3), water 21° C., 400 rpm
Description: as §2, with “[…];” for “P/N AQ12S052546WT;”

[5] = myo-inositol 0% of 17.6 g, 30 seconds
[6] = myo-inositol 0% of 17.6 g, 60 seconds
[7] = myo-inositol 1% of 17.6 g, 30 seconds
[8] = myo-inositol 1% of 17.6 g, 60 seconds
[9] = myo-inositol 2% of 17.6 g, 30 seconds
[10] = myo-inositol 2% of 17.6 g, 60 seconds
[11] = myo-inositol 4% of 17.6 g, 30 seconds
[12] = myo-inositol 4% of 17.6 g, 60 seconds
[13] = myo-inositol 8% of 17.6 g, 30 seconds
[14] = myo-inositol 8% of 17.6 g, 60 seconds

SMILES: CC(C)C[C@H](N)C(=O)O [Leucine, L-Leucine]
- Dissolved amino acid (g per 16 oz.) [1, 5]: 0.596 g per 16 oz.
- Dissolved amino acid (g per 16 oz.) [1, 6]: 1.21 g per 16 oz.
- Dissolved amino acid (g per 16 oz.) [1, 7]: 0.860 g per 16 oz.
- Dissolved amino acid (g per 16 oz.) [1, 8]: 1.51 g per 16 oz.
- Dissolved amino acid (g per 16 oz.) [1, 9]: 0.747 g per 16 oz.
- Dissolved amino acid (g per 16 oz.) [1, 10]: 1.53 g per 16 oz.
- Dissolved amino acid (g per 16 oz.) [1, 11]: 0.729 g per 16 oz.
- Dissolved amino acid (g per 16 oz.) [1, 12]: 1.36 g per 16 oz.
- Dissolved amino acid (g per 16 oz.) [1, 13]: 1.09 g per 16 oz.
- Dissolved amino acid (g per 16 oz.) [1, 14]: 1.94 g per 16 oz.
- dissolution rate of leucine in first material compared with second material (FIG. 4) ([1]; 30 second time point, all myo-inositol concentrations): faster
- Dissolved Leucine (g per 16 oz.) [2, 5]: 0.353 g per 16 oz.
- Dissolved Leucine (g per 16 oz.) [2, 6]: 0.703 g per 16 oz.
- Dissolved Leucine (g per 16 oz.) [2, 7]: 0.480 g per 16 oz.
- Dissolved Leucine (g per 16 oz.) [2, 8]: 1.04 g per 16 oz.
- Dissolved Leucine (g per 16 oz.) [2, 9]: 0.616 g per 16 oz.
- Dissolved Leucine (g per 16 oz.) [2, 10]: 1.33 g per 16 oz.
- Dissolved Leucine (g per 16 oz.) [2, 11]: 0.549 g per 16 oz.
- Dissolved Leucine (g per 16 oz.) [2, 12]: 1.09 g per 16 oz.
- Dissolved Leucine (g per 16 oz.) [2, 13]: 0.844 g per 16 oz.
- Dissolved Leucine (g per 16 oz.) [2, 14]: 1.62 g per 16 oz.
- slope of plot of leucine dissolution vs myo-inositol on a molar basis (FIG. 5) ([2]; second material, myo-inositol 0%, 1%, 2%, 30-second plot): 1.0816
- Dissolved amino acid (g per 16 oz.) ([3]; myo-inositol 0%, 30 seconds): 1.73 g per 16 oz.
- Dissolved amino acid (g per 16 oz.) ([3]; myo-inositol 0%, 60 seconds): 2.42 g per 16 oz.
- Dissolved amino acid (g per 16 oz.) ([3]; myo-inositol 0%, 90 seconds): 2.67 g per 16 oz.
- Dissolved amino acid (g per 16 oz.) ([3]; myo-inositol 0%, 240 seconds): 3.22 g per 16 oz.
- Dissolved amino acid (g per 16 oz.) ([3]; myo-inositol 0%, 600 seconds): 3.44 g per 16 oz.
- Dissolved amino acid (g per 16 oz.) ([3]; myo-inositol 1%, 30 seconds): 1.95 g per 16 oz.
- Dissolved amino acid (g per 16 oz.) ([3]; myo-inositol 1%, 60 seconds): 2.51 g per 16 oz.
- Dissolved amino acid (g per 16 oz.) ([3]; myo-inositol 1%, 90 seconds): 2.76 g per 16 oz.
- Dissolved amino acid (g per 16 oz.) ([3]; myo-inositol 1%, 240 seconds): 3.27 g per 16 oz.
- Dissolved amino acid (g per 16 oz.) ([3]; myo-inositol 1%, 600 seconds): 3.40 g per 16 oz.
- Dissolved amino acid (g per 16 oz.) ([3]; myo-inositol 2%, 30 seconds): 1.91 g per 16 oz.
- Dissolved amino acid (g per 16 oz.) ([3]; myo-inositol 2%, 60 seconds): 2.36 g per 16 oz.
- Dissolved amino acid (g per 16 oz.) ([3]; myo-inositol 2%, 90 seconds): 2.67 g per 16 oz.
- Dissolved amino acid (g per 16 oz.) ([3]; myo-inositol 2%, 240 seconds): 3.25 g per 16 oz.
- Dissolved amino acid (g per 16 oz.) ([3]; myo-inositol 2%, 600 seconds): 3.45 g per 16 oz.
- Dissolved amino acid (g per 16 oz.) ([3]; myo-inositol 4%, 30 seconds): 2.02 g per 16 oz.
- Dissolved amino acid (g per 16 oz.) ([3]; myo-inositol 4%, 60 seconds): 2.47 g per 16 oz.
- Dissolved amino acid (g per 16 oz.) ([3]; myo-inositol 4%, 90 seconds): 2.72 g per 16 oz.
- Dissolved amino acid (g per 16 oz.) ([3]; myo-inositol 4%, 240 seconds): 3.23 g per 16 oz.
- Dissolved amino acid (g per 16 oz.) ([3]; myo-inositol 4%, 600 seconds): 3.38 g per 16 oz.
- Dissolved amino acid (g per 16 oz.) ([3]; myo-inositol 8%, 30 seconds): 1.94 g per 16 oz.
- Dissolved amino acid (g per 16 oz.) ([3]; myo-inositol 8%, 60 seconds): 2.45 g per 16 oz.
- Dissolved amino acid (g per 16 oz.) ([3]; myo-inositol 8%, 90 seconds): 2.66 g per 16 oz.
- Dissolved amino acid (g per 16 oz.) ([3]; myo-inositol 8%, 240 seconds): 3.30 g per 16 oz.
- Dissolved amino acid (g per 16 oz.) ([3]; myo-inositol 8%, 600 seconds): 3.48 g per 16 oz.
- Leu dissolved at 30 seconds (g/16 oz.) ([4]; 30 seconds): 0.422 ± 0.018 g/16 oz.
- Leu dissolved at 60 seconds (% of total Leu) ([4]; 60 seconds): 23.7 ± 1.0 % of total Leu
- Leu dissolved at 60 seconds (g/16 oz.) ([4]; 60 seconds): 0.828 ± 0.036 g/16 oz.
